{"source": "paper PMC3919815", "about": "“Anti-Tumor Effects of Novel 5-O-Acyl Plumbagins Based on the Inhibition of Mammalian DNA Replicative Polymerase Activity” (PLoS ONE, 2014)", "key": {"Calf TdT": {"target": "T1, Calf TdT (Bos taurus, UniProt P06526)", "T1 construct": "purchased Takara Bio Inc. (Kyoto, Japan)", "T1 sequence (P06526 whole entry)": "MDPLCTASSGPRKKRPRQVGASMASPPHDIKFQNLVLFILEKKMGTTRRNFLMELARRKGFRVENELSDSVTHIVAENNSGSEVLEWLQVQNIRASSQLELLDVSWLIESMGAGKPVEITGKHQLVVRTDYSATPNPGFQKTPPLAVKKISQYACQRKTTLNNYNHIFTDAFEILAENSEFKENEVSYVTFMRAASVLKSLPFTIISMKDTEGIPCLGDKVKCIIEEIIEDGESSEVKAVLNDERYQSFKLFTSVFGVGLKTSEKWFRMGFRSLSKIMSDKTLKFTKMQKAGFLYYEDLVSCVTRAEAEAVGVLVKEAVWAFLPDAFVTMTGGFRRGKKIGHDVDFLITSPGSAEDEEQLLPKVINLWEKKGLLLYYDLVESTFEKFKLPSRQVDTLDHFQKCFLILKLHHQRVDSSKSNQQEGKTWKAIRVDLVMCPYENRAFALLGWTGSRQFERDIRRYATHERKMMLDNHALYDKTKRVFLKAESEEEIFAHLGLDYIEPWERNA", "experiment": "TdT activity inhibition", "format": "biochemical", "settings": "0.05 units enzyme; mean ± SD (n = 3)", "source_text": "(§1) Pol α was purified from calf thymus by immunoaffinity column chromatography as described by Tamai et al.. Recombinant rat pol β was purified from Escherichia coli JMpβ5 as described by Date et al.. The human pol γ catalytic gene was cloned into pFastBac. Histidine-tagged enzyme was expressed using the BACTO-BAC HT Baculovirus Expression System according to the manufacturer's instructions (Life Technologies, Frederick, MD, USA) and purified using ProBound resin (Invitrogen Japan, Tokyo Japan). Human pols δ and ε were purified by nuclear fractionation of human peripheral blood cancer cells (Molt-4) using the second subunit of pol δ and ε-conjugated affinity column chromatography, respectively. A truncated form of human pol η (residues 1–511) tagged with His6 at its C-terminal was expressed in E. coli cells and purified as described by Kusumoto et al.. A recombinant mouse pol ι tagged with His6 at its C-terminal was expressed and purified by Ni–NTA column chromatography. […]\n(§2) The chemically synthesized 5-O-acyl plumbagins (2a–j) were dissolved in distilled dimethyl sulfoxide (DMSO) to various concentrations and sonicated for 30 s. […] Activity without inhibitor was considered 100%, and the relative activity was determined for each inhibitor concentration. […]"}, "Rice pol λ": {"target": "T2, Rice pol λ (Oryza sativa subsp. japonica, UniProt Q67VC8)", "T2 construct": "His6 (C); made in house; host or cells: E. coli", "T2 sequence (Q67VC8 whole entry)": "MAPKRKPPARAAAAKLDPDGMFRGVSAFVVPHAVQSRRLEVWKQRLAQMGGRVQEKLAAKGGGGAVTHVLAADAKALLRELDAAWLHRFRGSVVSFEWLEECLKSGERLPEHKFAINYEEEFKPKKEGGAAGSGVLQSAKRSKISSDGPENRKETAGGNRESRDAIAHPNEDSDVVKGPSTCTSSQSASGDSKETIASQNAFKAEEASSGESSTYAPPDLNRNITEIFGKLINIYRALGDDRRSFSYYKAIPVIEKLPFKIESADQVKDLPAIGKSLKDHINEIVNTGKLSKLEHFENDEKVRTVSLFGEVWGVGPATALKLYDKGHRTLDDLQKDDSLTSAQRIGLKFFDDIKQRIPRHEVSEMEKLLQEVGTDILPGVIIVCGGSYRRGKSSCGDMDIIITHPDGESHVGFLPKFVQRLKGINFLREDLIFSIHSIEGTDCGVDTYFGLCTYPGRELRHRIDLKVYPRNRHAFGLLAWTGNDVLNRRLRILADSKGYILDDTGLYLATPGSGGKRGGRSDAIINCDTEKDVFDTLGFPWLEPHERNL", "experiment": "DNA polymerase activity inhibition", "format": "biochemical, rice (Oryza sativa L. cv. Nipponbare)", "source_text": "as §1, §2"}, "Human pol η": {"target": "T3, Human pol η (Homo sapiens, UniProt Q9Y253)", "T3 construct": "A truncated form of human pol η (residues 1–511) tagged with His6 at its C-terminal; His6 (C); made in house; host or cells: E. coli", "T3 sequence (Q9Y253 1-511)": "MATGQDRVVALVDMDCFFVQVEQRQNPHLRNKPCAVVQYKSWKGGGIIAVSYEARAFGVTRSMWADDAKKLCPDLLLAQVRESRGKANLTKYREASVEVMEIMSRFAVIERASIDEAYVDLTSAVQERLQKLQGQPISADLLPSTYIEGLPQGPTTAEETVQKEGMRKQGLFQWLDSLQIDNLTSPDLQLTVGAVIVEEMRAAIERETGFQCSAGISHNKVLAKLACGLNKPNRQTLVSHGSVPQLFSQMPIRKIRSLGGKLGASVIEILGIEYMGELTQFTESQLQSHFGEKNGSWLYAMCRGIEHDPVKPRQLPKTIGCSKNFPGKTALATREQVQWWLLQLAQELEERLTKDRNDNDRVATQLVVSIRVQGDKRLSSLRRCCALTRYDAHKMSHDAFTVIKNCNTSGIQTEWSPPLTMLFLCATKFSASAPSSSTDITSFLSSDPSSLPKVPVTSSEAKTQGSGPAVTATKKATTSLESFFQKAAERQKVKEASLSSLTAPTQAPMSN", "experiment": "DNA polymerase activity inhibition", "format": "biochemical", "settings": "0.05 units enzyme; mean ± SD (n = 3)", "source_text": "(§3) Pol α was purified from calf thymus by immunoaffinity column chromatography as described by Tamai et al.. Recombinant rat pol β was purified from Escherichia coli JMpβ5 as described by Date et al.. The human pol γ catalytic gene was cloned into pFastBac. Histidine-tagged enzyme was expressed using the BACTO-BAC HT Baculovirus Expression System according to the manufacturer's instructions (Life Technologies, Frederick, MD, USA) and purified using ProBound resin (Invitrogen Japan, Tokyo Japan). Human pols δ and ε were purified by nuclear fractionation of human peripheral blood cancer cells (Molt-4) using the second subunit of pol δ and ε-conjugated affinity column chromatography, respectively. A truncated form of human pol η (residues 1–511) tagged with His6 at its C-terminal was expressed in E. coli cells and purified as described by Kusumoto et al.. A recombinant mouse pol ι tagged with His6 at its C-terminal was expressed and purified by Ni–NTA column chromatography. A truncated form of pol κ (residues 1–560) with 6× His-tags attached at the C-terminus was overexpressed in E. coli and purified as described by Ohashi et al.. Recombinant human His-pol λ was overexpressed and purified according to a method described by Shimazaki et al.. Recombinant human His-pol μ was overexpressed in E. coli BL21 and purified using Glutathione Sepharose 4B (GE Healthcare Bio-Science Corp., Piscataway, NJ, USA) column chromatography according to the method for pol λ preparation by Shimazaki et al.. Pol α from a higher plant, cauliflower, was purified from the inflorescence structure according to the methods outlined by Sakaguchi et al.. Recombinant rice (Oryza sativa L. cv. Nipponbare) pol λ tagged with His6 at the C-terminus was expressed in E. coli and purified as described by Uchiyama et al.. Calf TdT, Taq pol, T4 pol, T7 RNA polymerase, and T4 polynucleotide kinase were purchased from Takara Bio Inc. (Kyoto, Japan). The Klenow fragment of pol I from E. coli was purchased from Worthington Biochemical Corp. (Freehold, NJ, USA). Bovine pancreas deoxyribonuclease I was obtained from Stratagene Cloning Systems (La Jolla, CA, USA).\n(§4) The reaction mixtures for calf pol α, rat pol β, plant pol α, and prokaryotic pols have been described previously, [35]; those for pol γ as well as pols δ and ε were previously described by Umeda et al. and Ogawa et al., respectively. Those for pols η, ι, and κ were the same as for pol α, and those for pols λ and μ were the same as for pol β. For the pol reactions, poly(dA)/oligo(dT)18 (A/T, 2/1) and dTTP were used as the DNA template-primer substrate and nucleotide (dNTP; 2′-deoxynucleoside-5′-triphosphate) substrate, respectively. For the TdT reactions, oligo(dT)18 (3′-OH) and dTTP were used as the DNA primer substrate and nucleotide substrate, respectively.\n(§5) The chemically synthesized 5-O-acyl plumbagins (2a–j) were dissolved in distilled dimethyl sulfoxide (DMSO) to various concentrations and sonicated for 30 s. Subsequently, 4 µL aliquots were mixed with 16 µL of each enzyme (0.05 units) in 50 mM Tris-HCl at pH 7.5, containing 1 mM dithiothreitol, 50% glycerol (by vol), and 0.1 mM ethylenediaminetetraacetic acid and held at 0°C for 10 min. These inhibitor-enzyme mixtures in 8 µL volumes were next added to 16 µL of enzyme standard reaction mixture and incubated at 37°C for 60 min, except for Taq pol, which was incubated at 74°C for 60 min. Activity without inhibitor was considered 100%, and the relative activity was determined for each inhibitor concentration. One unit of pol activity was defined as the amount of each enzyme that catalyzed the incorporation of 1 nmol dTTP into synthetic DNA template primers in 60 min, at 37°C, and under standard reaction conditions, [35]."}, "Rat pol β": {"target": "T4, Rat pol β (Rattus norvegicus, UniProt P06766)", "T4 construct": "made in house; host or cells: Escherichia coli JMpβ5", "experiment": "DNA polymerase activity inhibition", "format": "biochemical", "settings": "0.05 units enzyme; mean ± SD (n = 3)", "source_text": "as §3, §4, §5"}, "Human pol δ": {"target": "T5, Human pol δ (Homo sapiens, UniProt P28340)", "T5 construct": "purified by nuclear fractionation of human peripheral blood cancer cells (Molt-4); endogenous in cells; host or cells: Molt-4", "experiment": "DNA polymerase activity inhibition", "format": "biochemical", "settings": "0.05 units enzyme; mean ± SD (n = 3)", "source_text": "as §3, §4, §5"}, "Taq pol": {"target": "T6, Taq pol (Thermus aquaticus, UniProt P19821)", "T6 construct": "purchased Takara Bio Inc. (Kyoto, Japan)", "T6 sequence (P19821 whole entry)": "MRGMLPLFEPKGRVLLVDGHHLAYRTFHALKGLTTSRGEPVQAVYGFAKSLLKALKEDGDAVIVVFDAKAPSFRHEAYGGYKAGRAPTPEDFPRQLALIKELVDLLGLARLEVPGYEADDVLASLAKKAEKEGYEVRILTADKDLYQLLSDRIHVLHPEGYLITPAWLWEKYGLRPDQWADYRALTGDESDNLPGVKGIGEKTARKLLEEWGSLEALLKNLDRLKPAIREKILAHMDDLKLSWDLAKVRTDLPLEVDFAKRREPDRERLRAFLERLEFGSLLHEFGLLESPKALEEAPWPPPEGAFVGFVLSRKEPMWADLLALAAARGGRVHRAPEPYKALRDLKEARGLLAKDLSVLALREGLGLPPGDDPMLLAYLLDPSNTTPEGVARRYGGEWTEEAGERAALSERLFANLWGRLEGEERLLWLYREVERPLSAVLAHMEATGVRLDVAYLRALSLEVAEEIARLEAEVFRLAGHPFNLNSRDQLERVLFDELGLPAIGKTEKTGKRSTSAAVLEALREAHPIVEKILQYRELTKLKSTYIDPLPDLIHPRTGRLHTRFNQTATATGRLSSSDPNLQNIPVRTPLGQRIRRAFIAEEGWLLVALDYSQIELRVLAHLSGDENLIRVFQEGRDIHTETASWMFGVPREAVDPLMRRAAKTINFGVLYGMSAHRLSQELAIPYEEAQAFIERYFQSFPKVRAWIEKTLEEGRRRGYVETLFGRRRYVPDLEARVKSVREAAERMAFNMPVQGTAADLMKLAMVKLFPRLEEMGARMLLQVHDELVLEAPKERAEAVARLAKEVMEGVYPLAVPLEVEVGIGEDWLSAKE", "experiment": "DNA polymerase activity inhibition", "format": "biochemical", "source_text": "as §3, §4, §5"}, "T4 pol": {"target": "T7, T4 pol (Enterobacteria phage T4, UniProt P04415)", "T7 construct": "purchased Takara Bio Inc. (Kyoto, Japan)", "T7 sequence (P04415 whole entry)": "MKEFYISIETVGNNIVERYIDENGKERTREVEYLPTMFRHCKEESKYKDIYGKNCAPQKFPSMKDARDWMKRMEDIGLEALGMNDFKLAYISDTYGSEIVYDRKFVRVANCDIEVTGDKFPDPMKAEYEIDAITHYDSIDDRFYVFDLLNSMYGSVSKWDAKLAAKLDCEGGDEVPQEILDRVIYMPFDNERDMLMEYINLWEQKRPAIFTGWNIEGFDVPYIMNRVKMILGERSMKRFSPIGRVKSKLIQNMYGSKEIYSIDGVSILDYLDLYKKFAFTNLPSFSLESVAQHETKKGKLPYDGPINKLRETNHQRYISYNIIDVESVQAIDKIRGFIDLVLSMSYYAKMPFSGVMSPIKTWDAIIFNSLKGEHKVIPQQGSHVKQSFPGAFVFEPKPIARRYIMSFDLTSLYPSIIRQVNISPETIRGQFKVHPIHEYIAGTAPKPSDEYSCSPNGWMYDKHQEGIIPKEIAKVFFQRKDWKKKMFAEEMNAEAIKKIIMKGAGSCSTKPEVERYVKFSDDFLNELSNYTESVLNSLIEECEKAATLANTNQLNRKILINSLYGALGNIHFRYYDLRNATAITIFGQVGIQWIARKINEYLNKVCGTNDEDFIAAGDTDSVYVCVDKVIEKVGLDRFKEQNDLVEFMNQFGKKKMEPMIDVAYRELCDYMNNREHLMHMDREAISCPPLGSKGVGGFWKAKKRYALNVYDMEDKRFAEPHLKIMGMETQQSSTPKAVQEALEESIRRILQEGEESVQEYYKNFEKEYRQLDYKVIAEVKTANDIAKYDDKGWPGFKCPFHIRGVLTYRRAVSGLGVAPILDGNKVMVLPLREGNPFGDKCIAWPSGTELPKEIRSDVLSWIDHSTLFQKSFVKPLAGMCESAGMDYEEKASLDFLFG", "experiment": "DNA polymerase activity inhibition", "format": "biochemical", "source_text": "as §3, §4, §5"}, "Human pol κ": {"target": "T8, Human pol κ (Homo sapiens, UniProt Q9UBT6)", "T8 construct": "A truncated form of pol κ (residues 1–560) with 6× His-tags attached at the C-terminus; 6× His (C); made in house; host or cells: E. coli", "T8 sequence (Q9UBT6 1-560)": "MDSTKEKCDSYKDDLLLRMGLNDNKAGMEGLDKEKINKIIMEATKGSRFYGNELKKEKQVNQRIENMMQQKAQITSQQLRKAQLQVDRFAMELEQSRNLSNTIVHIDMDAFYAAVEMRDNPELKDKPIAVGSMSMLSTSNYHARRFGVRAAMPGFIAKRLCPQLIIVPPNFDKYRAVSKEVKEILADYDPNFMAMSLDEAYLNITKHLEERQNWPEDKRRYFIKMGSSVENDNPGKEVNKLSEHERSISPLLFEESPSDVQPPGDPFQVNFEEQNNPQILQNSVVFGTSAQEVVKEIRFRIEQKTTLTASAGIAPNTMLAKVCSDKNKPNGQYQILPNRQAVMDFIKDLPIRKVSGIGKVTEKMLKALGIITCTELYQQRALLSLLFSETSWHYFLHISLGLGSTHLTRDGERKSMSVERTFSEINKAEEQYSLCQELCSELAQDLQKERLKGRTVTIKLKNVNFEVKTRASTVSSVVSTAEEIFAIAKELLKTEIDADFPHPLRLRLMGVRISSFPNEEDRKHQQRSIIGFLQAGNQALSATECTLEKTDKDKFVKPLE", "experiment": "DNA polymerase activity inhibition", "format": "biochemical", "settings": "0.05 units enzyme; mean ± SD (n = 3)", "source_text": "as §3, §4, §5"}, "Human pol γ": {"target": "T9, Human pol γ (Homo sapiens, UniProt P54098)", "T9 construct": "His tag; made in house", "T9 sequence (P54098 whole entry)": "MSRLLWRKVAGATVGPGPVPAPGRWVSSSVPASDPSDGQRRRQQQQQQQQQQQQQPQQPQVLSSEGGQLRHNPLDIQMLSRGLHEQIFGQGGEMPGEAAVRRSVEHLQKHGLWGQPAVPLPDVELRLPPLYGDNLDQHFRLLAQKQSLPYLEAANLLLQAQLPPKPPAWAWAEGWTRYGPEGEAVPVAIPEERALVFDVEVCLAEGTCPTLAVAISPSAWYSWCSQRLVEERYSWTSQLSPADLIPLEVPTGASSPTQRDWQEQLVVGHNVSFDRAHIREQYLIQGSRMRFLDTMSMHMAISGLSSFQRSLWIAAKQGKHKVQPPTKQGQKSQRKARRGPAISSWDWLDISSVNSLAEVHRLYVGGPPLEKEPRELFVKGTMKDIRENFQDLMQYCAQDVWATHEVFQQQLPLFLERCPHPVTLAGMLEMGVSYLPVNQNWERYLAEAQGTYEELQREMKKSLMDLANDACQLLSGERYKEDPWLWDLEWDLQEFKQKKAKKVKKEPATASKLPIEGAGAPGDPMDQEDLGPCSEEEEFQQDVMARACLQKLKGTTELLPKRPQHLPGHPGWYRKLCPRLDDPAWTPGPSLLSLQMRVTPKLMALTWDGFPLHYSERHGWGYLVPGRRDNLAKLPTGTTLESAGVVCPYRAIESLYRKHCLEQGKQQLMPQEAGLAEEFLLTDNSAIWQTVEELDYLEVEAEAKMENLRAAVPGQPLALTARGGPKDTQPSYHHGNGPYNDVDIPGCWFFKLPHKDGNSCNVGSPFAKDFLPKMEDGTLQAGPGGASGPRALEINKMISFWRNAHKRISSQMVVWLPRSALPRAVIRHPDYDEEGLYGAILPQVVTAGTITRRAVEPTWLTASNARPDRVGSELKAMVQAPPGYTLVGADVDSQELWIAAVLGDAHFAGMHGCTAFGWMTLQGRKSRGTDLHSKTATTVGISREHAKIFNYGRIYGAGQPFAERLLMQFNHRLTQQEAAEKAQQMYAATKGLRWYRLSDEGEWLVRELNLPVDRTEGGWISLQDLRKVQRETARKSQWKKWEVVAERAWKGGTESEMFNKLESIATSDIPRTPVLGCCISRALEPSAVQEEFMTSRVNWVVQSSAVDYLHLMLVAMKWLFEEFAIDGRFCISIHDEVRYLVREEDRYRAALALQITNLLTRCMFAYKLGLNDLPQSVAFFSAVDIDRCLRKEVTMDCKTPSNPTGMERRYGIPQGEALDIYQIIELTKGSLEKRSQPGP", "experiment": "DNA polymerase activity inhibition", "format": "biochemical", "source_text": "as §3, §4, §5"}}, "data": [{"smiles": "CCCCCCCC/C=C\\CCCCCCCC(=O)Oc1cccc2c1C(=O)C=C(C)C2=O", "note": "[2f, 5-O-oleoyl-2-methyl-1,4-naphthoquinone]", "values": [{"measurement": "IC50", "setting": "Calf TdT", "value": "10.6 ± 0.5", "unit": "µM"}, {"measurement": "effect on enzyme activity (in words)", "setting": "Rice pol λ", "value": "had no effect"}, {"measurement": "IC50", "setting": "Rice pol λ; 0.05 units enzyme", "value": "> 100", "unit": "µM"}, {"measurement": "IC50", "setting": "Human pol η", "value": "7.9 ± 0.42", "unit": "µM"}, {"measurement": "IC50", "setting": "Rat pol β", "value": "10.3 ± 0.46", "unit": "µM"}, {"measurement": "IC50", "setting": "Human pol δ", "value": "5.3 ± 0.41", "unit": "µM"}, {"measurement": "effect on enzyme activity (in words)", "setting": "Taq pol", "value": "had no effect"}, {"measurement": "IC50", "setting": "Taq pol; 0.05 units enzyme, 74°C", "value": "> 100", "unit": "µM"}, {"measurement": "effect on enzyme activity (in words)", "setting": "T4 pol", "value": "had no effect"}, {"measurement": "IC50", "setting": "T4 pol; 0.05 units enzyme", "value": "> 100", "unit": "µM"}, {"measurement": "IC50", "setting": "Human pol κ", "value": "7.6 ± 0.41", "unit": "µM"}, {"measurement": "inhibition of pol γ relative activity (in words)", "setting": "Human pol γ; 10 µM compound, Fig. 4", "value": "strongest inhibition"}, {"measurement": "IC50", "setting": "Human pol γ; 0.05 units enzyme, mean ± SD (n = 3)", "value": "4.5 ± 0.4", "unit": "µM"}]}]}
